Measured values taken from paper PMC12163635, “Synthetic Retinoids for the Modulation of Genomic and Nongenomic Processes in Neurodegenerative Diseases” (ACS Omega, 2025).
pKd: −log10 of the molar value. Like-named read-outs stand apart in the source and are kept apart here.

Columns and labels:
RARα [1] = target: T1, RARα (Homo sapiens, UniProt P10276); assay: Fluorescence competition binding assay (displacement of DC271)
T1 construct: His6-3C-NusA (cleaved yes); made in house; host or cells: E. coli BL21(DE3), pET50b vector
T1 sequence (P10276 183-417 limits assumed): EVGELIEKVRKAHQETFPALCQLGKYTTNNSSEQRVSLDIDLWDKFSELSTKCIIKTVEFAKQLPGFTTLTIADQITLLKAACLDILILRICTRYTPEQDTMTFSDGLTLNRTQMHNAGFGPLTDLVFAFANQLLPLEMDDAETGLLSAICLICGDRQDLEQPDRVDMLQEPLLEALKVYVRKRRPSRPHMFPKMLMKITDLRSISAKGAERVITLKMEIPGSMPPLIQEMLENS
Procedure, shortened: (§1)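 Recombinant RARα and RARγ LBDs (E. coli-expressed, His/NusA or His/SUMO tag removed by 3C cleavage, SEC-purified) were titrated with serially diluted retinoids displacing fluorescent retinoid DC271. Fluorescence change was fitted by nonlinear least-squares regression to give equilibrium dissociation constant KD.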

RARα [2] = target: T2, RARα (Homo sapiens, UniProt P10276); assay: as above
T2 sequence (P10276 182-417): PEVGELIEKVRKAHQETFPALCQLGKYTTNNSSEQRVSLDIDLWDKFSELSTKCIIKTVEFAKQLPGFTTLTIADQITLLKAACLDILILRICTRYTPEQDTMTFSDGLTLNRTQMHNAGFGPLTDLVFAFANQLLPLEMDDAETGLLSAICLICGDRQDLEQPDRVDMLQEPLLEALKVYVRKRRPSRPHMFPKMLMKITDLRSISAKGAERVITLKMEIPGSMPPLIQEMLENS
Procedure, shortened: as §1

Cc1sc(-c2ccc(C(=O)O)cc2)nc1-c1ccc2c(c1)C(C)(C)CCC2(C)C [GZ25, reference compound]
pKd (RARα [1]; 100 nM RAR and DC271 on plate, read-out: Binding KD (± SD) RARα): 6.16
ΔGEXP RARα (RARα [1]; experimental binding free energy from K D, ΔGexp=−RT ln K, 298.1 K): -7.92 kcal/mol
binding preference RARα versus RARγ (from K D) (RARα [2]; log-log plot of K D for RARα and RARγ): bind RARγ stronger than RARα
pKd (RARα [2]; stated for the RARs (RARα and RARγ) together, read-out: K D, binding to the RARs): 6.00 to 7.00
